Reference: the NIST ThermoML archive (doi:10.1021/acs.jced.7b00578)
Several values for one entry are separate records, joined by “and”; a condition that tells them apart may be missing. Equal values may be shown once.

Key:
[1] = Molar enthalpy of transition or fusion; details: Crystal; DSC
[2] = molar heat capacity at constant pressure; details: 101.33 kPa, Extra sensitive DSC
[3] = for vapor or sublimation pressure: Closed cell (Static) method; for Normal melting temperature: DTA

O=C1OCCO1 [ethylene carbonate]
Details	Molar enthalpy of transition or fusion [kcal/mol]
[1]	3.23

Details	molar heat capacity at constant pressure [J/K/mol]	vapor or sublimation pressure
[2], 262.19 K, Crystal	101.89	–
[2], 264 K, Crystal	102.85	–
[2], 266 K, Crystal	104	–
[2], 268 K, Crystal	105.06	–
[2], 270 K, Crystal	106.2	–
[2], 272 K, Crystal	107.35	–
[2], 274 K, Crystal	108.49	–
[2], 276 K, Crystal	109.72	–
[2], 278 K, Crystal	110.87	–
[2], 280 K, Crystal	112.1	–
[2], 282 K, Crystal	113.33	–
[2], 284 K, Crystal	114.57	–
[2], 286 K, Crystal	115.8	–
[2], 288 K, Crystal	117.03	–
[2], 290 K, Crystal	118.26	–
[2], 292 K, Crystal	119.59	–
[2], 294 K, Crystal	120.91	–
[2], 295.68 K, Crystal	121.96	–
[2], 316.43 K, Liquid	139.49	–
[2], 317 K, Liquid	139.58	–
[2], 318 K, Liquid	139.75	–
[2], 319 K, Liquid	139.84	–
[2], 320 K, Liquid	140.02	–
[2], 321 K, Liquid	140.1	–
[2], 322 K, Liquid	140.28	–
[2], 323 K, Liquid	140.37	–
[2], 323.6 K, Liquid	140.46	–
[3], 272.67 K, Crystal	–	0.00025 kPa
[3], 272.74 K, Crystal	–	0.00026 kPa
[3], 272.8 K, Crystal	–	0.00025 kPa
[3], 272.88 K, Crystal	–	0.00025 kPa
[3], 278.16 K, Crystal	–	0.00051 kPa and 0.00049 kPa
[3], 278.17 K, Crystal	–	0.00049 kPa
[3], 283.05 K, Crystal	–	0.00087 kPa and 0.00088 kPa and 0.00086 kPa
[3], 288.1 K, Crystal	–	0.00154 kPa and 0.00152 kPa and 0.00151 kPa
[3], 292.98 K, Metastable liquid	–	0.0034 kPa and 0.00338 kPa
[3], 293 K, Metastable liquid	–	0.00341 kPa
[3], 293.01 K, Crystal	–	0.00258 kPa and 0.00256 kPa
[3], 293.02 K, Crystal	–	0.00254 kPa and 0.00256 kPa
[3], 297.98 K, Crystal	–	0.00431 kPa and 0.0043 kPa
[3], 297.99 K, Crystal	–	0.00431 kPa
[3], 297.99 K, Metastable liquid	–	0.00518 kPa and 0.0052 kPa and 0.00521 kPa
[3], 298 K, Metastable liquid	–	0.0052 kPa
[3], 302.82 K, Crystal	–	0.00702 kPa and 0.00697 kPa
[3], 302.83 K, Crystal	–	0.00701 kPa
[3], 302.92 K, Metastable liquid	–	0.0078 kPa and 0.00783 kPa
[3], 307.84 K, Crystal	–	0.01131 kPa
[3], 307.84 K, Metastable liquid	–	0.01153 kPa and 0.01158 kPa and 0.01159 kPa
[3], 307.85 K, Crystal	–	0.01133 kPa and 0.0113 kPa
[3], 307.85 K, Metastable liquid	–	0.01159 kPa
[3], 312.82 K, Liquid	–	0.01692 kPa and 0.01693 kPa
[3], 312.83 K, Liquid	–	0.01694 kPa
[3], 317.76 K, Liquid	–	0.02435 kPa
[3], 317.77 K, Liquid	–	0.02435 kPa and 0.02433 kPa
[3], 322.65 K, Liquid	–	0.03439 kPa and 0.03437 kPa
[3], 322.66 K, Liquid	–	0.03443 kPa
[3], 327.75 K, Liquid	–	0.04874 kPa and 0.04875 kPa
[3], 327.76 K, Liquid	–	0.04872 kPa
[3], 327.77 K, Liquid	–	0.04878 kPa
[3], 332.8 K, Liquid	–	0.06796 kPa and 0.06798 kPa and 0.06797 kPa
[3], 337.66 K, Liquid	–	0.09261 kPa
[3], 337.67 K, Liquid	–	0.09259 kPa and 0.09267 kPa
[3], 337.68 K, Liquid	–	0.09275 kPa
[3], 342.68 K, Liquid	–	0.126 kPa
[3], 342.69 K, Liquid	–	0.1261 kPa and 0.1262 kPa
[3], 342.7 K, Liquid	–	0.1262 kPa
[3], 347.63 K, Liquid	–	0.1694 kPa
[3], 347.65 K, Liquid	–	0.1695 kPa
[3], 347.66 K, Liquid	–	0.1696 kPa
[3], 352.45 K, Liquid	–	0.2235 kPa
[3], 352.46 K, Liquid	–	0.2236 kPa
[3], 352.47 K, Liquid	–	0.2238 kPa
[3], 352.49 K, Liquid	–	0.2241 kPa
[3], 357.49 K, Liquid	–	0.296 kPa
[3], 357.5 K, Liquid	–	0.2961 kPa and 0.2962 kPa and 0.2963 kPa
[3], 362.62 K, Liquid	–	0.3906 kPa
[3], 362.63 K, Liquid	–	0.3906 kPa and 0.3907 kPa

Details	Normal melting temperature [°C]
[3], Crystal	35.98

CC1CCC(=O)O1 (centres undefined) [γ-valerolactone]
Details	Molar enthalpy of transition or fusion [kcal/mol]
[1]	1.7

Liquid
Details	molar heat capacity at constant pressure [J/K/mol]	vapor or sublimation pressure
[2], 265.37 K	167.7	–
[2], 270 K	168.6	–
[2], 275 K	169.6	–
[2], 280 K	170.7	–
[2], 285 K	171.81	–
[2], 290 K	172.91	–
[2], 295 K	174.11	–
[2], 300 K	175.31	–
[2], 305 K	176.61	–
[2], 310 K	177.81	–
[2], 315 K	179.11	–
[2], 320 K	180.42	–
[2], 325 K	181.72	–
[2], 330 K	183.02	–
[2], 335 K	184.22	–
[2], 340 K	185.52	–
[2], 345 K	186.72	–
[2], 350 K	187.93	–
[2], 355 K	189.13	–
[2], 358.5 K	189.93	–
[3], 238.07 K	–	0.00014 kPa
[3], 238.08 K	–	0.00015 kPa
[3], 238.09 K	–	0.00015 kPa
[3], 243.06 K	–	0.00026 kPa
[3], 243.07 K	–	0.00026 kPa
[3], 248.13 K	–	0.00048 kPa
[3], 253.14 K	–	0.00082 kPa
[3], 258.15 K	–	0.00138 kPa
[3], 263.14 K	–	0.00228 kPa
[3], 268.14 K	–	0.00369 kPa
[3], 273.14 K	–	0.00586 kPa
[3], 273.15 K	–	0.00586 kPa
[3], 273.63 K	–	0.00612 kPa
[3], 273.64 K	–	0.00612 kPa
[3], 278.14 K	–	0.00912 kPa
[3], 283.14 K	–	0.01396 kPa and 0.01395 kPa
[3], 288.14 K	–	0.02098 kPa and 0.02097 kPa
[3], 288.15 K	–	0.021 kPa
[3], 293.13 K	–	0.03106 kPa
[3], 293.14 K	–	0.03111 kPa and 0.03109 kPa
[3], 298.14 K	–	0.04532 kPa and 0.04531 kPa
[3], 303.13 K	–	0.06501 kPa and 0.06502 kPa
[3], 308.14 K	–	0.09212 kPa and 0.09211 kPa

Details	Normal melting temperature [°C]
[3], Crystal	-34.81
